Assay results: patent US9517989B2, “2-cycloalkyl resorcinol cannabinergic ligands” (priority 2012, dated 2016)
Read-outs that look alike come from different tables or passages of the source.

Columns and labels:
CB1 [1] = biological target: T1, CB1 (Rattus norvegicus, UniProt P20272); test: CB1 receptor binding affinity (Ki)
Procedure: Some disclosed compounds were tested for CB1 and CB2 receptor binding affinity (Tables 1, 2, 3, 4, 5, 6). As used herein “binding affinity” is represented by the Ki value. The Ki value is the affinity constant and describes the affinity of the compound for the receptor. […] A detailed description of the methods used to test “binding affinity” of compounds is given in Makriyannis, et al., US 2007, 0135388 and in Papahatjis, et al. J. Med. Chem. (2007) 4048, the content of each of which is hereby incorporated by reference.

CB2 receptor = CB2 receptor (UniProt P47936); test: CB2 receptor binding affinity (Ki); conditions: read-out: CB2 receptor Ki
Procedure: Some disclosed compounds were tested for CB1 and CB2 receptor binding affinity (Tables 1, 2, 3, 4, 5, 6). As used herein “binding affinity” is represented by the Ki value. The Ki value is the affinity constant and describes the affinity of the compound for the receptor. The lower the Ki value, the higher the affinity of the compound for the receptor. A detailed description of the methods used to test “binding affinity” of compounds is given in Makriyannis, et al., US 2007, 0135388 and in Papahatjis, et al. J. Med. Chem. (2007) 4048, the content of each of which is hereby incorporated by reference.

CB1 [2] = biological target: T1, CB1; test: cyclic adenosine monophosphate (cAMP) assay at CB1; format: cell-based; conditions: for EC50: read-out: Functional Potency (EC50); for Emax: read-out: % Efficacy
Procedure: (§1) Functional characterization of some of the disclosed compounds was performed by using the cyclic adenosine monophosphate (cAMP) assay. The functional potency of the compound is represented by the EC50 value. The lower the EC50 value, the higher the functional potency. A detailed description of the cyclic adenosine monophosphate (cAMP) assay is given in Nikas et al. J. Med. Chem. (2010) 6996.

CB2 = CB2 (Homo sapiens, UniProt P34972); test: cyclic adenosine monophosphate (cAMP) assay at CB2; format: cell-based; conditions: for EC50: read-out: Functional Potency (EC50); for Emax: read-out: % Efficacy
CB2, sequence (P34972 whole entry, species assumed): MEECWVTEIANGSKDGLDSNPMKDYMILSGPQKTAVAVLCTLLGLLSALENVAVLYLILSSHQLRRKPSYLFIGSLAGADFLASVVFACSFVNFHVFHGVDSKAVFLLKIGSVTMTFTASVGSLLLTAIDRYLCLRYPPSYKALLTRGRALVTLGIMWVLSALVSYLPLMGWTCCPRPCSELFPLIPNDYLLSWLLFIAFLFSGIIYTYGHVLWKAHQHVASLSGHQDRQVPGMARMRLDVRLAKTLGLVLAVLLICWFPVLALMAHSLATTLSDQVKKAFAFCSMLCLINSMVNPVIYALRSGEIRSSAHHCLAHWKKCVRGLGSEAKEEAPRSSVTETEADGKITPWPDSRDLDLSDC
Procedure: as §1

C57BL6/J mice = test: Analgesia assay (tail immersion / tail withdrawal test); format: in vivo
Procedure: (§2) Some of the disclosed compounds were tested in vivo using two well defined rodent assays for cannabinergic activity, the analgesia and the hypothermia assays. The analgesia assay (tail immersion test) determines the ability of the test compound to activate cannabinergic signaling, through modulation of cannabinoid receptors, and thereby reduce nociceptive pain. The hypothermia test determines the ability of a test compound to act as a central CB1 agonist and decrease the body temperature. […] The details of both assays are described below.
C57BL6/J mice (Jackson Laboratories, Bar Harbor Me.) were single housed at least 1 h before start of experiment. Food and water are removed immediately before the first injection.
Route of administration=i.p. Volume=1 mL/100 g body weight.
Tail withdrawal test: 52° C. water bath (use bags). • a. Bag is made of stapled surgery sheets to form a small pocket the size of a mouse. • b. […] The tip of the mouse's tail is dipped into the warm water, with 1 cm submerged. • d. […] B. Hypothermia Assay

C57BL/6 J mice = test: Hypothermia assay (rectal temperature); format: in vivo; conditions: dose of 3 mg/kg, FIG. 2
Procedure: as §2
C57BL/6 J mice (Charles River Breeding Laboratories, Wilmington, Mass., USA) weighing 30 to 35 g were group housed five to a cage, in a temperature-controlled (20° C.) animal facility. Mice were habituated to the animal facility for at least 1 week prior to experiments with a 12-h light/dark cycle (lights are on at 7:00 AM). Mice were given free access to food and water. Experimentally naïve mice were used for each dose condition, and the mice were tested during the light phase.
Rectal temperature was measured in mice using a rectal probe of a digital laboratory thermometer, RET-3-ISO, type T thermocouple (Physitemp Instruments Inc, Clifton, N.J.). The lubricated probe was inserted approximately 2.0 cm into the rectum for approximately 30 sec, prior to each recording. […]

T1 sequence (P20272 whole entry): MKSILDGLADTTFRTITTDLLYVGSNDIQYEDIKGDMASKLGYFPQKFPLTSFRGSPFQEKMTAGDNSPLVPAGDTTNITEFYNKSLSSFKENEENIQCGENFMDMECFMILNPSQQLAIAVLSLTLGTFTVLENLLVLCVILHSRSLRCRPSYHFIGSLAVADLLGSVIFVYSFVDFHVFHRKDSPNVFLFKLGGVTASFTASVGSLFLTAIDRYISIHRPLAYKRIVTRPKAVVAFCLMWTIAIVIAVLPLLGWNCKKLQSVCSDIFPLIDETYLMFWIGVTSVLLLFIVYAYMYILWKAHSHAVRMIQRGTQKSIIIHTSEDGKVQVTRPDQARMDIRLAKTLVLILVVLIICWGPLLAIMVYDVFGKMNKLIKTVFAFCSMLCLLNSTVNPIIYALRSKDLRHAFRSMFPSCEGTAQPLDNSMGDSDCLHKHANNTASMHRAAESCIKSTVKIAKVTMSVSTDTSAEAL

2-[(1S,6S)-3-(Hydroxymethyl)-6-(1-methylethenyl)-2-cyclohexen-1-yl]-5-(6-morpholino-2-methylhexane-2-yl)-1,3-dimethoxy-benzene [Compound 74]
Ki (CB1 [1]; read-out: CB1 receptor Ki): 70 nM
Ki (CB2 receptor): 16 nM
% Efficacy (CB1 [2]): 51%
Functional Activity (CB1 [2]): Agonist at CB1
EC50 (CB1 [2]): 50.4 nM
% Efficacy (CB2): 28%
Functional Activity (CB2): Partial agonist at CB2
EC50 (CB2): 6.7 nM

C=C(C)[C@H]1CCC(CO)=C[C@@H]1c1c(O)cc(C2(CCCCCC)CC2)cc1O [Compound 4.3, 2-[(1S,6S)-3-(Hydroxymethyl)-6-(1-methylethenyl)-2-cyclohexen-1-yl]-5-(1-hexyl-cyclopropyl)resorcinol]
Ki (CB1 [1]): 16 nM
Ki (CB2 receptor): 14 nM
Functional Activity (CB1 [2]): Agonist at CB1
Emax (CB1 [2]): 58%
EC50 (CB1 [2]): 1.6 nM
Functional Activity (CB2): Partial agonist at CB2
Emax (CB2): 35%
EC50 (CB2): 12 nM

CCCCCCC1(c2cc(O)c([C@H]3C=C(C)[C@H]4C[C@@H]3C4(C)C)c(O)c2)SCCS1 [Compound 40.6, (+)-2-[(1R,4S,5S)-2,6,6-trimethylbicylco[3.1.1]hept-2-en-4-yl]-5-(2-hexyl-1,3-dithiolane-2-yl)resorcinol]
Ki (CB1 [1]): 19.2 nM
Ki (CB2 receptor): 7.9 nM
Functional Activity (CB1 [2]): Partial agonist at CB1
Emax (CB1 [2]): 38%
EC50 (CB1 [2]): 21 nM
Functional Activity (CB2): Partial agonist at CB2
Emax (CB2): 38%
EC50 (CB2): 8.7 nM

CC1=C[C@H](c2c(O)cc(C3(CCCCCC#N)CCCC3)cc2O)[C@@H]2C[C@H]1C2(C)C [Compound 41, (+)-2-[(1R,4S,5S)-2,6,6-trimethylbicylco[3.1.1]hept-2-en-4-yl]-5-[(5-cyanopentyl)cyclopentyl]resorcinol]
Ki (CB1 [1]): 2.6 nM
Ki (CB2 receptor): 0.8 nM
antinociception (analgesia) (C57BL6/J mice; dose of 3 mg/Kg, FIG. 1): maximum possible effect

C=C(C)[C@H]1CCC(CO)=C[C@@H]1c1c(O)cc(C(C)(C)CCCCN2CCOCC2)cc1O [Compound 71, 2-[(1S,6S)-3-(Hydroxymethyl)-6-(1-methylethenyl)-2-cyclohexen-1-yl]-5-(6-morpholino-2-methylhexane-2-yl)resorcinol]
Ki (CB1 [1]): 6 nM
Ki (CB2 receptor): 3 nM
Functional Activity (CB1 [2]): Agonist at CB1
Emax (CB1 [2]): 88%
EC50 (CB1 [2]): 1.4 nM
Functional Activity (CB2): Partial agonist at CB2
Emax (CB2): 42%
EC50 (CB2): 0.4 nM
centrally mediated hypothermia (C57BL/6 J mice): does not show significant hypothermia

(−)-Δ^9-tetrahydrocannabinol [(−)-Δ^9-THC, reference compound]
potency in the analgesia assay relative to compound 41 (times less potent) (C57BL6/J mice; same test as compound 41): approximately 10 times
